Measurements reported in ChEMBL document CHEMBL1201862, “PubChem BioAssay data set” (2004).
The source made the active and inactive calls.

Tests used:
Type in all cases: functional
[1] = biological target: T1, Replicative DNA helicase DnaB (Mycobacterium tuberculosis, UniProt P9WMR3); experiment: DnaB intein splicing inhibitors, dose response, biochemical, cell-free fluorescence (AID 449749)
T1 sequence (P9WMR3 whole entry): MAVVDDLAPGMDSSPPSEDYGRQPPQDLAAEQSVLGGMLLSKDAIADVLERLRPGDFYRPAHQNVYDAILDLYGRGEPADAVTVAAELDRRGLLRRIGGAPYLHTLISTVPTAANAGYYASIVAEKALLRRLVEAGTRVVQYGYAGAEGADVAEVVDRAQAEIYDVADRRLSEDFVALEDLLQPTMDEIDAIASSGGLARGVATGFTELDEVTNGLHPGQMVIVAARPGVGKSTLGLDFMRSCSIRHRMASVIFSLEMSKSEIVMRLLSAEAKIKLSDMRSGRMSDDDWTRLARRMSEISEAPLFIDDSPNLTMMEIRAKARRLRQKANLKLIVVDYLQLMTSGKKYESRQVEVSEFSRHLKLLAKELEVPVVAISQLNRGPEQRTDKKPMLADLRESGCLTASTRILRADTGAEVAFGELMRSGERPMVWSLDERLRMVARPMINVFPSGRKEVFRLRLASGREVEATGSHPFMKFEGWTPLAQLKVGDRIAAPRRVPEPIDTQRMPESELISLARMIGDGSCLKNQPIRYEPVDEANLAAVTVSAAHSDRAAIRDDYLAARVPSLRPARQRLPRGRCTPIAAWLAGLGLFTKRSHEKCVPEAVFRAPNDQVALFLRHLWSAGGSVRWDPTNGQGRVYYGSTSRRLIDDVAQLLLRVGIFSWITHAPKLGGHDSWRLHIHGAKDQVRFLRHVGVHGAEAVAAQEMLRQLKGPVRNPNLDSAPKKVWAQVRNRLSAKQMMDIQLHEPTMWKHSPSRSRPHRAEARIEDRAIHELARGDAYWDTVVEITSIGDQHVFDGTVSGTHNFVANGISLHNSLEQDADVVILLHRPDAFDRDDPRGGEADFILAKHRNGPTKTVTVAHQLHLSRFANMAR

[2] = biological target: T2, Hexokinase HKDC1 (Homo sapiens, UniProt Q2TB90); experiment: HKDC1 hexokinase inhibitors, dose response, biochemical, W721R variant (AID 504729)
T2 sequence (Q2TB90 whole entry): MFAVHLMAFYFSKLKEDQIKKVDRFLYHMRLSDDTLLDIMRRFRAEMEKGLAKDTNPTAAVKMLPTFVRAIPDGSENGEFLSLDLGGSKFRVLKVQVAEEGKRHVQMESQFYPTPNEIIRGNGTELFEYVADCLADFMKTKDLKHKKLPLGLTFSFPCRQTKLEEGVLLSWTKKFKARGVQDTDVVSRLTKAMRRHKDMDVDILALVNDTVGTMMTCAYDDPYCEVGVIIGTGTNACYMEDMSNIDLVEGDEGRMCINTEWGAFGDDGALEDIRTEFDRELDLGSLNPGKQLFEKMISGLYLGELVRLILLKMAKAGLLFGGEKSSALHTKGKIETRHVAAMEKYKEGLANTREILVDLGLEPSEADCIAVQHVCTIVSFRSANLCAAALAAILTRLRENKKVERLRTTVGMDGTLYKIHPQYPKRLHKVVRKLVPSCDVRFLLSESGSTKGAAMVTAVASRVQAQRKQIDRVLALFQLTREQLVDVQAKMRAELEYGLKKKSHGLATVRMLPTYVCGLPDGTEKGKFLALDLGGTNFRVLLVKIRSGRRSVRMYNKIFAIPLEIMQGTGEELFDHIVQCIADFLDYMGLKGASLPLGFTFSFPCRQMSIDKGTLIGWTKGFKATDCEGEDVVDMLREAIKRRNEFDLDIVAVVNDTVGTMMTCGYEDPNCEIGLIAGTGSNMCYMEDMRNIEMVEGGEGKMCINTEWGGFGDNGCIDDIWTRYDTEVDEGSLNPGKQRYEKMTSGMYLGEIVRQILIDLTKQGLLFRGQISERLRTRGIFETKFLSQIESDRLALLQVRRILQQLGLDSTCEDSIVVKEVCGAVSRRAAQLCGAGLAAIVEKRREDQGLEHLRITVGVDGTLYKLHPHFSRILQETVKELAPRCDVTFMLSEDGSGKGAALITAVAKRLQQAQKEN

[3] = biological target: T3, Sentrin-specific protease 7 (Homo sapiens, UniProt Q9BQF6);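 also: Luminescence-based dose-response confirmation of ultra-high-throughput screening hits, measuring inhibition of SENP7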
T3 sequence (Q9BQF6 whole entry): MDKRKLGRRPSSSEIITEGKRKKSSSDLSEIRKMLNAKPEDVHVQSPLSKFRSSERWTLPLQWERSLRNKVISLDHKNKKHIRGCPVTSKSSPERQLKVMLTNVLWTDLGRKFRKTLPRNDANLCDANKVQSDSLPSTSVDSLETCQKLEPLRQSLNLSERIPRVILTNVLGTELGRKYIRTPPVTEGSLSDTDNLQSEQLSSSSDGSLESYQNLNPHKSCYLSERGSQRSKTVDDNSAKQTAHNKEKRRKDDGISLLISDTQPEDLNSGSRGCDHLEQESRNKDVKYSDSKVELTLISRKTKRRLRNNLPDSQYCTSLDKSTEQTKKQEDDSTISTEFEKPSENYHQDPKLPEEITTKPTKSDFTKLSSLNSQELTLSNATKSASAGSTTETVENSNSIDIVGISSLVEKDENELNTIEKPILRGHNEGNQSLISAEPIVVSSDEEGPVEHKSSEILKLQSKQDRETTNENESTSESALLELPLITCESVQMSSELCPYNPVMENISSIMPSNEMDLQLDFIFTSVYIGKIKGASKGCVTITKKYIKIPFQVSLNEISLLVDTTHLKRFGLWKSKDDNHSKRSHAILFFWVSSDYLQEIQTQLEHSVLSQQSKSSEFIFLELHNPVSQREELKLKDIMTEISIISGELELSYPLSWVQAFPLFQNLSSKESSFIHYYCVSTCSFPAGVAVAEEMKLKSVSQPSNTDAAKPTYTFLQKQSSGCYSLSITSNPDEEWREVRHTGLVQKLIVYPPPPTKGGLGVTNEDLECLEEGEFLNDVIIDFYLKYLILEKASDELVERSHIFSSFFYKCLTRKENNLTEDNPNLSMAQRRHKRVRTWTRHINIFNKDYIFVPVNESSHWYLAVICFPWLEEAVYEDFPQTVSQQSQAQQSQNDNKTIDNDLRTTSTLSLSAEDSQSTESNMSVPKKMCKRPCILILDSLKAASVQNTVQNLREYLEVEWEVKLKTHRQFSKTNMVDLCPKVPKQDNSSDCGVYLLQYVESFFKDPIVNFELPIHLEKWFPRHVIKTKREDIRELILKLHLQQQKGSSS

Row | Compound | AC50 [1] | IC50 [2] | IC50 [3]
1 | COC(=O)c1ccccc1NC1=C/C(=N\S(=O)(=O)c2ccc(C(=O)O)cc2)c2ccccc2C1=O | > 380 µM (inconclusive) | 3.84 µM (active) | –
2 | NC(=O)C1CCN(C2=C(Cl)C(=O)c3ccccc3C2=O)CC1 | 0.617 µM (active) | 25.9 µM (inactive) | 17.8 µM (active)
3 | O=c1c2ccccc2nc(/C=C/c2cccnc2)n1Cc1ccccc1 | 9.28 µM (active) | 3.2 µM (active) | –
4 | O=C(O)c1ccc(N/N=C/c2ccc(OC(=O)c3ccccc3Cl)cc2)cc1 | – | – | 3.74 µM (active)
